Assay results from patent publication US20070232567A1, “Formulations Of Low Dose Non-Steroidal Anti-Inflammatory Drugs And Beta-Cyclodextrin” (priority 2006, published 2007).

System: patients with moderate-to-severe post-surgical (dental) pain
Experiment: Randomized, double-blind, single-dose, placebo- and comparator-controlled study of pain relief by administered dose
Type: in vivo, human
Procedure: A 336-patient, seven treatment arm, randomized, double-blind, single-dose, and placebo- and comparator-controlled, parallel-group study was conducted. Patients were randomly assigned to receive a single dose of either diclofenac sodium solubilized with hydroxypropyl-beta-cyclodextrin (hereinafter “DIC”), ketorolac tromethamine, or placebo.
Bolus IV injectable 2 ml solutions were prepared by solubilizing diclofenac sodium with hydroxypropyl-beta-cyclodextrin. The formulation strengths were as follows: • Formulation: Diclofenac sodium solubilized with hydroxypropyl-β-cyclodextrin • Strengths: 75 mg, 37.5 mg, 18.75 mg, 9.4 mg and 3.75 mg • Dosage: Bolus IV injection (no less than 15 sec) • Batch Number: 063004 (PPS4010) • Manufacturer: Manufactured for Javelin by Precision Pharma • Storage Conditions: Room temperature
Active Control/Comparator: • Formulation: Ketorolac Tromethamine • Strength: 30 mg • Dosage: Bolus IV injection (no less than 15 sec) • Batch Number: 21-430-DK • Manufacturer: Abbott Labs • Storage Conditions: Room temperature
Pain was assessed by each patient at Baseline (0 hour: Visual Analog Scale (VAS) and categorical pain intensity only), at 5, 15, 30 and 45 minutes, and at 1, 1.5, 2, 3, 4, 5, 6, 7, 8, 10, 12 and 24 hours after administration of study medication and immediately prior to the first dose of rescue medication. At each post-dose time period, levels of pain intensity (categorical and VAS) and pain relief (categorical and VAS) was assessed by each patient. […]
The presence of a dose-response was tested with a step-down testing procedure. Total pain relief (TOTPAR), peak pain relief, pain intensity difference (SPID), summed peak reduction in pain intensity difference (SPRID), and patient global evaluation was analyzed with analysis of variance (ANOVA) with treatment, center, and baseline categorical pain intensity as factors. […] Time to onset of perceptible relief and time to onset of meaningful relief was analyzed with survival analysis techniques. […] A 95% confidence interval for each estimated median time to event was calculated. […]

O=C(c1ccccc1)c1ccc2n1CCC2C(=O)O (stereo not drawn) [ketorolac, ketorolac tromethamine]
% Maximum Effect (TOTPAR) (30 mg single bolus IV injection (active comparator)): 100%
TOTPAR (Sum of Pain Relief VAS 0–100 mm ratings 0–6 hours) (30 mg single bolus IV injection (active comparator), value (SEM)): 400.3 (SEM 36)
peak analgesic response compared with that of diclofenac (about 80% pain relief) (30 milligrams): Similar
